Results from a compilation of properties of binary mixtures (doi:10.2298/jsc190413047v).

Experiment: xn = mol fraction of the nth substance listed
Conditions: 100 kPa

CC[n+]1ccn(C)c1C.O=S(=O)([N-]S(=O)(=O)C(F)(F)F)C(F)(F)F + O=C1CCCO1
electrical conductivity [S/m]
Conditions	293.15 K	298.15 K	303.15 K	308.15 K	313.15 K	318.15 K	323.15 K
x2 = 0	0.309	–	0.468	0.567	0.67	0.783	–
x2 = 0.0999	0.383	0.472	0.574	0.684	0.805	0.938	–
x2 = 0.186	0.476	0.572	0.686	0.803	0.934	1.07	1.21
x2 = 0.3071	–	0.742	0.868	1.01	1.16	1.31	1.45
x2 = 0.4005	0.726	0.864	1.01	1.17	1.33	1.5	1.61
x2 = 0.4996	0.881	1.01	1.17	–	1.51	–	1.81
x2 = 0.5987	1.06	1.22	1.37	1.53	1.7	1.88	–
x2 = 0.6999	1.24	–	1.57	1.74	1.91	2.08	2.21
x2 = 0.7999	–	–	1.69	1.85	2.01	2.19	2.39
x2 = 0.8474	1.43	1.58	1.73	1.86	2.01	2.15	–
x2 = 0.8999	1.35	1.48	1.6	–	–	1.97	2.07
x2 = 0.9507	–	1	1.08	1.16	1.24	1.32	–

CCCCn1cc[n+](C)c1C.O=S(=O)([N-]S(=O)(=O)C(F)(F)F)C(F)(F)F + O=C1CCCO1
electrical conductivity [S/m]
Conditions	293.15 K	298.15 K	303.15 K	308.15 K	313.15 K	318.15 K	323.15 K
x2 = 0	0.178	0.23	0.289	0.351	0.426	–	–
x2 = 0.1014	–	0.262	0.325	0.398	–	0.569	0.669
x2 = 0.1987	0.246	0.301	0.367	0.442	0.525	0.619	0.739
x2 = 0.3	–	0.37	–	–	0.631	0.729	0.842
x2 = 0.4001	0.381	0.465	0.567	0.67	0.787	0.904	1.03
x2 = 0.4995	0.511	0.613	0.722	0.861	0.976	1.1	1.27
x2 = 0.5994	0.706	0.807	0.934	1.07	1.22	1.36	1.52
x2 = 0.7012	0.882	1.01	1.14	–	–	–	1.74
x2 = 0.8001	–	1.25	1.39	1.53	1.68	1.83	1.99
x2 = 0.8496	1.19	1.31	1.45	1.58	1.72	1.85	2
x2 = 0.8996	1.18	–	1.41	1.53	1.66	1.78	1.91
x2 = 0.9468	0.849	0.927	–	1.1	1.2	1.3	1.41
